Reference: ChEMBL document CHEMBL5727242, “N-Methylbenzimidazoles as mIDH1 inhibitors” (2019)

Assay: Biological Assay: Mutant IDH1 R132H Biochemical Assay mIDH1 catalyzes the NADPH-dependent reduction of alpha-ketoglutarate (a-KG) to (2R)-2-hydroxyglutarate (2-HG). NADPH consumption was measured by luminescent readout.The biochemical reactions were performed at 32° C. in 384-well plates using a reaction volume of 41 μL and the following assay buffer conditions: 50 mM Tris pH 7.5, 100 mM NaCl, 20 mM MgCl2, 0.05% BSA, 0.01% Brij, 1 μM NADPH, and 250 μM α-KG. The IDH1 R132H enzyme was used in a final concentration of 1.5 nM. Test compounds were used in a concentration range between 0.002 and 10 μM. The final DMSO concentration was 2.4%.The reaction was incubated for 30 minutes, then 40 μL of detection mix (0.75 μg/ml Luciferase, 0.02 U/ml Oxidoreductase, 4 μg/mL FMN, 2 μL/ml decanal/ethanol, 50 mM Tris pH 7.5, 0.5% Glycerin, 0.01% Tween-20, 0.05% BSA) was added. Luminescence was measured on a luminescent reader (10 seconds measuring time, 1 second integration period, 30% sensitivity). The decrease in luminescence is proportional to mIDH1 activity. IC50 values are determined by interpolation from plots of relative luminescence versus inhibitor concentration.

IC50: 38 nM
Structure (SMILES): COC(=O)c1ccc2c(c1)nc(Nc1ccc(OC(F)(F)F)cc1)n2[C@@H]1C[C@H](C)CC[C@H]1C(C)C
